Assay results reported in patent EP0889886B1, “NOVEL PHENANTHRIDINES SUBSTITUTED IN THE 6 POSITION” (ALTANA Pharma AG, priority 1996, dated 1997).

Tested on: PDE IV
Experiment: Inhibition of PDE IV activity (method of Bauer and Schwabe, adapted to microtiter plates)
Type: biochemical
Details: Hemmung der PDE IV-Aktivität
Method: Hierbei erfolgt im ersten Schritt die PDE-Reaktion. In einem zweiten Schritt wird das entstandene 5'-Nukleotid durch eine 5'-Nukleotidase des Schlangengiftes von Crotalus Atrox zum ungeladenen Nukleosid gespalten. Im dritten Schritt wird das Nukleosid auf lonenaustauschsäulen vom verbliebenen geladenen Substrat getrennt. Die Säulen werden mit 2 ml 30 mM Ammoniumformiat (pH 6,0) direkt in Minivials eluiert, in die noch 2 ml Szintillatorflüssigkeit zur Zählung gegeben wird.

Structure (SMILES)	-log IC50
CCOc1cc2c(cc1OC)C(c1ccc(N(C)S(=O)(=O)c3ccc(C)cc3)cc1)=N[C@@H]1CCCC[C@H]21 (racemic) [Verbindung 36, (+/-)-cis-9-Ethoxy-8-methoxy-6-[(N-methyl-4-p-toluolsulfonamido)phenyl]-1,2,3,4,4a,10bhexahydrophenanthridin]	9.09
CCOc1cc2c(cc1OCC)[C@@H]1CCCC[C@@H]1N=C2c1ccc(O)cc1 (racemic) [Verbindung 37, (+/-)-cis-8,9-Diethoxy-6-(4-hydroxyphenyl)-1,2,3,4,4a,10b-hexahydrophenanthridin]	8.04
